Laboratory results published in patent publication US7119073B2, “Peptides and their use as inhibitors of hepatitis C virus ns3 protease” (Istituto Di Ricerche Di Biologia Molecolare P. Angeletti SpA, priority 2001, dated 2006).

target: T1, full length NS3 protein noncovalently complexed with the full-length NS4A cofactor protein (NS3/NS4A complex) (Hepatitis C virus genotype 1b, UniProt P26663); assay: Full-length NS3-NS4A heterodimer protein assay (Assay A); assay type: biochemical, hepatitis C virus (HCV); conditions: Table 1; full-length NS3/NS4A, NS5A-NS5B peptide substrate; read-out: Assay A
T1 construct: full length NS3 protein spanning residues 1027–1657 of the HCV polyprotein
Experimental: Full-Length NS3-NS4A Heterodimer Protein Assay (Assay A)
(Gallinari, P., Paolini, C., Brennan, D., Nardi, C., Steinkühler, C. and De Francesco, R. Modulation of hepatitis C virus NS3 protease and helicase activities through the interaction with NS4A. Biochemistry 38, 5620–5632, 1999)
In this assay the full length NS3 protein spanning residues 1027–1657 of the HCV polyprotein, noncovalently complexed with the full-length NS4A cofactor protein (residues 1658–1711) was used. Assays were performed in 60 μl of a buffer containing 50 mM Hepes pH 7.5, 0.15 M NaCl, 0.1% (v/v) Triton X-100, 15% (v/v) glycerol, 10 mM DTT, 2 nM NS3/NS4A complex. To this assay mix 10 μM (final concentration) of a peptide substrate corresponding to the NS5AB cleavage site and having the sequence of the NS5A-NS5B peptide, were added. Incubation times at 23° C. were adjusted to obtain <10% conversion. Reactions were stopped by the addition of 40 μl of 1% TFA. Cleavage was determined by HPLC using a Merck-Hitachi chromatograph equipped with an autosampler. 80 μl samples were injected on a Lichrospher C18 reversed phase cartridge column (4×74 mm, 5 μm, Merck) and fragments were separated using a 10–40% acetonitrile gradient at 5%/min using a flow rate of 2.5 ml/min. Peak detection was done by monitoring both the absorbance at 220 nm and tryptophan fluorescence (λex=280 nm, λem=350 nm). Cleavage products were quantitated by integration of chromatograms with respect to appropriate standards. Kinetic parameters were calculated from nonlinear least-squares fit of initial rates as a function of substrate concentration with the help of a Kaleidagraph software, assuming Michaelis-Menten kinetics.
Ki values of peptide inhibitors were calculated from substrate titration experiments performed in the presence of increasing amounts of inhibitor. Experimental data sets were simultaneously fitted to eg.1 using a multicurve fit macro with the help of a Sigmaplot software: V=(VmaxS)/(Km([…])+S); (eq.1) Alternatively, Ki values were derived from IC50 values, calculated using a four-parameter logistic function, according to eq.2: IC50=(1+S/Km)Ki (eq.2)

T1 sequence (P26663 1027-1657): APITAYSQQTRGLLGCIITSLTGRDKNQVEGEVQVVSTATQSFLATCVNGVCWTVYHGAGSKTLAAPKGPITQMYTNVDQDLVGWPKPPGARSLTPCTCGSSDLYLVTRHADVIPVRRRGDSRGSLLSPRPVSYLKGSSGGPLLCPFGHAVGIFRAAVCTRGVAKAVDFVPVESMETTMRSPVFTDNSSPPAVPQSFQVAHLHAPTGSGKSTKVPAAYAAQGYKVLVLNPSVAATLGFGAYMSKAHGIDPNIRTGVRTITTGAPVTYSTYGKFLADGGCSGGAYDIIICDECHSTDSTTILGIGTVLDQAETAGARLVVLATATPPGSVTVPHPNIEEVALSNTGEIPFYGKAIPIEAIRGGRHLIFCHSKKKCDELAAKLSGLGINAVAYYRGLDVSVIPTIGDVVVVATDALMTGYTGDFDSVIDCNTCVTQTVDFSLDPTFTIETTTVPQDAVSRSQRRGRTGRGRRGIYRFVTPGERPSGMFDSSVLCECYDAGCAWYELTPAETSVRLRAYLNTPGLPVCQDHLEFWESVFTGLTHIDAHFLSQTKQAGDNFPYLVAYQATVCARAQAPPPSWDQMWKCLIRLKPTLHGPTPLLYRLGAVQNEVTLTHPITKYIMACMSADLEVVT
T1 sequence (P26663 1658-1711): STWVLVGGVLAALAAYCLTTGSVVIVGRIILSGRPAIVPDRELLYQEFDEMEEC

Compound | IC50 [µM]
CC(C)COC(=O)NC(C(=O)NC(CC(C)C)C(=O)NC(CC(F)F)C(=O)NCCc1ccccc1CCC(=O)O)C(C)C (centres unmarked) [Compound 125] | < 100

same assay, conditions: Table 5; full-length NS3/NS4A; read-out: AssayA

Compound | IC50 [µM]
CC(C)COC(=O)N[C@H](C(=O)N1C[C@H](c2ccccc2)C[C@H]1C(=O)N[C@@H](CC(F)F)C(=O)NCCc1c[nH]c2ccccc12)C(C)C [Compound 574] | < 100
COc1ccc2c(O[C@@H]3C[C@@H](C(=O)N[C@@H](CC(F)F)C(=O)NCCc4c(F)cc(C(=O)O)cc4F)N(C(=O)[C@@H](NC(=O)OC(C)(C)C)C(C)(C)C)C3)cc(-c3ccccc3)nc2c1 [Compound 576] | < 1
CC(C)COC(=O)NC(C(=O)N1CCCC1C(=O)NC(CC(F)F)C(=O)NCCc1c(F)cc(C(=O)O)cc1F)C(C)C (centres unmarked) [Compound 502] | < 10
CC(C)COC(=O)N[C@H](C(=O)N1C[C@H](SCc2ccccc2)C[C@H]1C(=O)N[C@@H](CC(F)F)C(=O)NCCc1c(F)cc(C(=O)O)cc1F)C(C)C [Compound 544] | < 10
CC(C)COC(=O)N[C@@H](CCC(=O)O)C(=O)N1C[C@H](O)C[C@H]1C(=O)N[C@@H](CS)C(=O)NCCc1ccccc1Cl [Compound 503] | < 100
CC(C)COC(=O)N[C@H](C(=O)N1C[C@@H](OCc2ccccc2)C[C@H]1C(=O)N[C@@H](CC(F)F)C(=O)NCCc1c(F)cc(C(=O)O)cc1F)C(C)C [Compound 527] | < 10
CC(C)COC(=O)N[C@H](C(=O)N1C[C@H](C2CCCCC2)C[C@H]1C(=O)N[C@@H](CC(F)F)C(=O)NCCc1c(F)cc(C(=O)O)cc1F)C1CCCC1 [Compound 538] | < 1
CC(C)COC(=O)N[C@@H](CCC(=O)O)C(=O)N1C[C@H](c2ccccc2)C[C@H]1C(=O)N[C@@H](CS)C(=O)NCCc1ccccc1Br [Compound 508] | < 100
CC(C)COC(=O)N[C@H](C(=O)N1C[C@H](OCc2ccccc2)CC1C(=O)N[C@@H](CC(F)F)C(=O)NCCc1c(F)cc(C(=O)O)cc1F)C(C)C (some centres unmarked) [Compound 526] | < 1
CC(C)COC(=O)N[C@H](C(=O)N1C[C@H](c2ccccc2)C[C@H]1C(=O)N[C@@H](CC(F)F)C(=O)NCCc1cccc(NC(C(=O)O)c2ccccc2)c1)C(C)C (mixture of isomers) [Compound 564] | < 10
CC(C)COC(=O)N[C@H](C(=O)N1C[C@H](C2CCCCC2)C[C@H]1C(=O)N[C@@H](CC(F)(F)F)C(=O)NCCc1c(F)cc(C(=O)O)cc1F)C(C)C [Compound 529] | < 10
CC(C)COC(=O)N[C@H](C(=O)N1C[C@H](OCc2ccccc2)C[C@H]1C(=O)N[C@@H](CC(F)(F)F)C(=O)NCCc1c(F)cc(C(=O)O)cc1F)C(C)C [Compound 530] | < 10
CC(C)COC(=O)N[C@H](C(=O)N1C[C@H](c2ccccc2)C[C@H]1C(=O)N[C@@H](CC(F)F)C(=O)NCCc1cccc(/C=C/C(=O)O)c1)C(C)C [Compound 558] | < 10
CC(C)COC(=O)N[C@H](C(=O)N1C[C@H](c2ccccc2)C[C@H]1C(=O)N[C@@H](CC(F)F)C(=O)NCCc1c(F)cc(C(=O)OC(C)C)cc1F)C(C)C [Compound 524] | < 100
O=C(O)CC[C@H](NS(=O)(=O)c1cccc2ccccc12)C(=O)N1C[C@H](c2ccccc2)C[C@H]1C(=O)N[C@@H](CS)C(=O)NCCc1ccc(C(=O)O)cc1 [Compound 513] | < 100
CC(C)COC(=O)N[C@H](C(=O)N1C[C@H](S(=O)(=O)C2CCCCC2)C[C@H]1C(=O)N[C@@H](CC(F)F)C(=O)NCCc1c(F)cc(-c2nn[nH]n2)cc1F)C(C)C [Compound 556] | < 1
CC(C)COC(=O)N[C@@H](CCC(=O)O)C(=O)N1C[C@H](c2ccccc2)C[C@H]1C(=O)N[C@@H](CC(F)F)C(=O)NCCC1=CCCCC1 [Compound 511] | < 100
CC(C)COC(=O)N[C@H](C(=O)N1C[C@H](c2ccccc2)C[C@H]1C(=O)N[C@@H](CC(F)F)C(=O)NCCc1ccc(C(=O)O)cc1)C(C)C [Compound 517] | < 10
CC(C)COC(=O)N[C@H](C(=O)N1C[C@H](c2ccccc2)C[C@H]1C(=O)N[C@@H](CC(F)F)C(=O)NCCc1cccc(/C=C/C(=O)O)c1F)C(C)C [Compound 560] | < 1
CC(C)COC(=O)N[C@H](C(=O)N1C[C@H](c2ccccc2)C[C@H]1C(=O)N[C@@H](CS)C(=O)NCCc1ccc(C(=O)O)cc1)C(C)C [Compound 516] | < 10

Compound | IC50 [µM]
CC(C)COC(=O)N[C@H](C(=O)N1C[C@H](c2ccccc2)C[C@H]1C(=O)N[C@@H](CC(F)F)C(=O)NCCc1ccc(-c2noc(=O)[nH]2)cc1)C(C)C [Compound 519] | < 100
CC(C)COC(=O)N[C@H](C(=O)N1C[C@H](S(=O)(=O)C2CCCCC2)C[C@H]1C(=O)N[C@@H](CC(F)F)C(=O)NCCc1c(F)cc(C(=O)O)cc1F)C(C)C [Compound 553] | < 1
CC(C)COC(=O)N[C@H](C(=O)N1C[C@H](c2ccccc2)C[C@H]1C(=O)N[C@@H](CC(F)F)C(=O)NCCc1cn(CCC(=O)O)c2ccccc12)C(C)C [Compound 573] | < 100
CCCS[C@@H]1C[C@@H](C(=O)N[C@@H](CC(F)F)C(=O)NCCc2c(F)cc(C(=O)O)cc2F)N(C(=O)[C@@H](NC(=O)OCC(C)C)C(C)C)C1 [Compound 548] | < 1
CC(C)COC(=O)N[C@@H](CCC(=O)O)C(=O)N1C[C@H](OCc2ccccc2)C[C@H]1C(=O)N[C@@H](CS)C(=O)NCCc1ccccc1Cl [Compound 507] | < 10
CC(C)COC(=O)N[C@H](C(=O)N1C[C@H](c2ccccc2)C[C@H]1C(=O)N[C@@H](CC(F)F)C(=O)NCCc1cccc(OCC(=O)O)c1)C(C)C [Compound 562] | < 100
CC(C)COC(=O)N[C@H](C(=O)N1C[C@H](c2ccccc2)C[C@H]1C(=O)N[C@@H](CC(F)F)C(=O)NCCc1[nH]c2ccccc2c1CCC(=O)O)C(C)C [Compound 572] | < 100
CC(C)COC(=O)N[C@H](C(=O)N1C[C@H](C2CCCCC2)C[C@H]1C(=O)N[C@@H](CC(F)F)C(=O)NCCc1c(F)cc(C(=O)O)cc1F)C(C)C [Compound 528] | < 1
COCCOCO[C@@H]1C[C@@H](C(=O)N[C@@H](CC(F)F)C(=O)NCCc2c(F)cc(C(=O)O)cc2F)N(C(=O)[C@@H](NC(=O)OCC(C)C)C(C)C)C1 [Compound 505] | < 10
COc1cccc(S(=O)(=O)[C@@H]2C[C@@H](C(=O)N[C@@H](CC(F)F)C(=O)NCCc3c(F)cc(C(=O)O)cc3F)N(C(=O)[C@@H](NC(=O)OCC(C)C)C(C)C)C2)c1 [Compound 547] | < 1
CC(C)COC(=O)N[C@@H](CCC(=O)O)C(=O)N1C[C@H](c2ccccc2)CC1C(=O)N[C@@H](CS)C(=O)NCCc1ccccc1Cl (some centres unmarked) [Compound 506] | < 10
CC(C)COC(=O)N[C@@H](CCC(=O)O)C(=O)N1C[C@H](c2ccccc2)C[C@H]1C(=O)N[C@@H](CS)C(=O)NCCc1ccc(C(=O)O)cc1 [Compound 512] | < 100
CC[C@@H](C)[C@H](NC(=O)OCC(C)C)C(=O)N1C[C@H](C2CCCCC2)C[C@H]1C(=O)N[C@@H](CC(F)F)C(=O)NCCc1c(F)cc(C(=O)O)cc1F [Compound 535] | < 1
CC(C)COC(=O)N[C@H](C(=O)N1C[C@H](c2ccccc2)C[C@H]1C(=O)N[C@@H](CC(F)F)C(=O)NCCc1ccc(-c2nn[nH]n2)cc1)C(C)C [Compound 518] | < 10
CCC(Nc1cccc(CCNC(=O)[C@H](CC(F)F)NC(=O)[C@@H]2C[C@@H](c3ccccc3)CN2C(=O)[C@@H](NC(=O)OCC(C)C)C(C)C)c1)C(=O)O (mixture of isomers) [Compound 563] | < 10
CCOC(=O)/C=C/c1cccc(CCNC(=O)[C@H](CC(F)F)NC(=O)[C@@H]2C[C@@H](c3ccccc3)CN2C(=O)[C@@H](NC(=O)OCC(C)C)C(C)C)c1 [Compound 559] | < 100
CC(C)COC(=O)N[C@H](C(=O)N1C[C@H](c2ccccc2)C[C@H]1C(=O)N[C@@H](CC(F)F)C(=O)NCCc1cccc(OC(C(=O)O)c2ccccc2)c1)C(C)C (mixture of isomers) [Compound 569] | < 10
CC[C@H](C)[C@H](NC(=O)OCC(C)C)C(=O)N1C[C@H](C2CCCCC2)C[C@H]1C(=O)N[C@@H](CC(F)F)C(=O)NCCc1c(F)cc(C(=O)O)cc1F [Compound 533] | < 1
CCC(Oc1ccc(F)c(CCNC(=O)[C@H](CC(F)F)NC(=O)[C@@H]2C[C@@H](C3CCCCC3)CN2C(=O)[C@@H](NC(=O)OCC(C)C)C(C)C)c1F)C(=O)O (mixture of isomers) [Compound 568] | < 1

same assay, conditions: full-length NS3-NS4A heterodimer protein assay; read-out: Assay A (IC50 class)

Compound | IC50 [µM]
CC(C)C[C@H](NC(=O)C1(Cc2ccsc2C(=O)O)Cc2ccccc2N1)C(=O)N[C@@H](CC(F)F)C(=O)NCCc1cc2ccccc2[nH]1 (single isomer, unassigned) [Compound 707b] | < 100
